According to paper PMC6905088 (Biochemical pharmacology, 2019):
“Also recorded” adds a separate entry of the source.

Tests used:
CYP1A2 = molecular target: T1, CYP1A2 (Homo sapiens, UniProt P05177); test: Recombinant isozyme kinetic assay; conditions: substrate desmethyl-terbinafine
T1 sequence (P05177 1-516): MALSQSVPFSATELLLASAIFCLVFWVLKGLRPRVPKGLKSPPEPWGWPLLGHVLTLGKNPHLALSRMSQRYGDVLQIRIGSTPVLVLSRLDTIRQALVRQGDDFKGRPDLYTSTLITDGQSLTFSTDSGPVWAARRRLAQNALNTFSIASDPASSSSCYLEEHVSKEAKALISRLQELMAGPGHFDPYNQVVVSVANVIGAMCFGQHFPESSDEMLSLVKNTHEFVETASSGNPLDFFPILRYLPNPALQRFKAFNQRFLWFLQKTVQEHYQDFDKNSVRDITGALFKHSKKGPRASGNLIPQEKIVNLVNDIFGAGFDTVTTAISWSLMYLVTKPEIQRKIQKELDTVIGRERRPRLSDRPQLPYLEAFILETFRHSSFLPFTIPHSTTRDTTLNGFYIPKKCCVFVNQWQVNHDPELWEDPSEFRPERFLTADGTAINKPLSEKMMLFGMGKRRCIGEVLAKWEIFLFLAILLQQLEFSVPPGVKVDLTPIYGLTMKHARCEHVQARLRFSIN

CYP2D6 [1] = molecular target: T2, CYP2D6 (Homo sapiens, UniProt P10635)
CYP2C9 = CYP2C9 (Homo sapiens, UniProt P11712); test: Recombinant isozyme kinetic assay
CYP2C8 = molecular target: T3, CYP2C8 (Homo sapiens, UniProt P10632); test: Recombinant isozyme kinetic assay
T3 sequence (P10632 1-490): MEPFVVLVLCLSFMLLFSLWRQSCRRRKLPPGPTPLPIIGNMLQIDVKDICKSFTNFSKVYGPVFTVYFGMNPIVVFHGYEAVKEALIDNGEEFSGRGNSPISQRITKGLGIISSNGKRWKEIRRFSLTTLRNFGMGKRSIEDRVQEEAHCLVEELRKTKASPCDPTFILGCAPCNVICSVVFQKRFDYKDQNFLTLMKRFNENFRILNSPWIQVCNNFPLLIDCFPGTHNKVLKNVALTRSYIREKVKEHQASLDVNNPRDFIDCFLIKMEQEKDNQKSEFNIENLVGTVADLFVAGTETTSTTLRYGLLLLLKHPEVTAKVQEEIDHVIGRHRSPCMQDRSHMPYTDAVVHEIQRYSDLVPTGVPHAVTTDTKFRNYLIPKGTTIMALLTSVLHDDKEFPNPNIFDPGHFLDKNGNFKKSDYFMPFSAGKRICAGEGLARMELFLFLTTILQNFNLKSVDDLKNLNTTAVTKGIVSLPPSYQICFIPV

CYP2B6 = molecular target: T4, CYP2B6 (Homo sapiens, UniProt P20813); test: Recombinant isozyme kinetic assay
T4 sequence (P20813 1-491): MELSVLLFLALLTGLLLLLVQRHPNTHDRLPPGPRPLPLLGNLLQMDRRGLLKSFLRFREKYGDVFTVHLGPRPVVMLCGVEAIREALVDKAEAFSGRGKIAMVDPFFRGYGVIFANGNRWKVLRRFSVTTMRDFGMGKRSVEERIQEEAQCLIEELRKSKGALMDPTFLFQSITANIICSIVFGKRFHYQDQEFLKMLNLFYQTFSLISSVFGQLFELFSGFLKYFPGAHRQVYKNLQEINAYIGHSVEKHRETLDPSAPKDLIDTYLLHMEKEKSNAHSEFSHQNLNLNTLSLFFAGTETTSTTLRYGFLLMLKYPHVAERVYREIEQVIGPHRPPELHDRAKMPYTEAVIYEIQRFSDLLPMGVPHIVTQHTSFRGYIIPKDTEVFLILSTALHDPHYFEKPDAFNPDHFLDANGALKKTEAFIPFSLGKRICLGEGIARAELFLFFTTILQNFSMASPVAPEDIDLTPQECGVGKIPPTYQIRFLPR

CYP2C19 = conditions: substrate terbinafine, ref Davis et al. (2019); cited from earlier work
CYP2A6 = molecular target: T5, CYP2A6 (Homo sapiens, UniProt P11509); test: Recombinant isozyme kinetic assay; assay type: in vitro ADME
T5 sequence (P11509 1-494): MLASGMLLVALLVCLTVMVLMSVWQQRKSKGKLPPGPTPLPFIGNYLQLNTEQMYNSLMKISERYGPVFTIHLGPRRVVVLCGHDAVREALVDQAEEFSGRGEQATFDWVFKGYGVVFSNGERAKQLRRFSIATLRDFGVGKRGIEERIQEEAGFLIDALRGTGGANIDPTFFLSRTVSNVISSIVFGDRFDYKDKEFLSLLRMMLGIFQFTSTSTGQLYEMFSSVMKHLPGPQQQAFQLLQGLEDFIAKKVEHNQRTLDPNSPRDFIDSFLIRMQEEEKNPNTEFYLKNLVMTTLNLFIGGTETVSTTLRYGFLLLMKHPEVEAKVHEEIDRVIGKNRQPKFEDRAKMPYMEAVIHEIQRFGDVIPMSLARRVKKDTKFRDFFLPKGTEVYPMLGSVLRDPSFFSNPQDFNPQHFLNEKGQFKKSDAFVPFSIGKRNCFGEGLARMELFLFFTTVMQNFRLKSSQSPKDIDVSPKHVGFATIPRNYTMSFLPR

[2] = ref Terbianfine Product Monograph, Canada, 1995; cited from earlier work
CYP2C9 and 3A4 = test: In vitro to in vivo scaling of P450 kinetics, CYP2C9 and 3A4 combined; conditions: scaled to average protein concentrations in human liver microsomes
CYP3A4 = conditions: substrate terbinafine, ref Davis et al. (2019); cited from earlier work
[3] = ref Vago et al., 1994, Kovarik et al., 1995; cited from earlier work
CYP2D6 [4] = molecular target: T2, CYP2D6; test: Recombinant isozyme kinetic assay; conditions: Pathway 1 Step 1, substrate terbinafine
CYP2E1 = CYP2E1 (Homo sapiens, UniProt P05181); test: Recombinant isozyme kinetic experiments, CYP2E1; assay type: in vitro ADME
[5] = CYP2C9, Step 2.2b, substrate desmethyl-terbinafine
[6] = Step 2.2b, substrate desmethyl-terbinafine
[7] = substrate desmethyl-terbinafine, normalized MS peak area, scaled x10^6

Chain of CYP2C9 (P11712 whole entry): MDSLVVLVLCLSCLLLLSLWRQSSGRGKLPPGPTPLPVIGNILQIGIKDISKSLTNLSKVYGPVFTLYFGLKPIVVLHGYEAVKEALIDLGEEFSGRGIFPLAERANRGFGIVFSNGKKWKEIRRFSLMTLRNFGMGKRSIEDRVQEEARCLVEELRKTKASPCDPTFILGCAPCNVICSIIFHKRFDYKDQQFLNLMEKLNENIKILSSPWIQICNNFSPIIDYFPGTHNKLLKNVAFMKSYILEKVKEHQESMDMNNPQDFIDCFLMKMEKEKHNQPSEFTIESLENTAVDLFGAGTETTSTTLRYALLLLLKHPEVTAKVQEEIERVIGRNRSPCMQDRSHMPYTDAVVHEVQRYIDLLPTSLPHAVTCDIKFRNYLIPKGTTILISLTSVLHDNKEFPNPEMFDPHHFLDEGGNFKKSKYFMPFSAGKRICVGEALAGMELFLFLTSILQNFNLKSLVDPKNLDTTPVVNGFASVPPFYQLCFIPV
T2 sequence (P10635 whole entry): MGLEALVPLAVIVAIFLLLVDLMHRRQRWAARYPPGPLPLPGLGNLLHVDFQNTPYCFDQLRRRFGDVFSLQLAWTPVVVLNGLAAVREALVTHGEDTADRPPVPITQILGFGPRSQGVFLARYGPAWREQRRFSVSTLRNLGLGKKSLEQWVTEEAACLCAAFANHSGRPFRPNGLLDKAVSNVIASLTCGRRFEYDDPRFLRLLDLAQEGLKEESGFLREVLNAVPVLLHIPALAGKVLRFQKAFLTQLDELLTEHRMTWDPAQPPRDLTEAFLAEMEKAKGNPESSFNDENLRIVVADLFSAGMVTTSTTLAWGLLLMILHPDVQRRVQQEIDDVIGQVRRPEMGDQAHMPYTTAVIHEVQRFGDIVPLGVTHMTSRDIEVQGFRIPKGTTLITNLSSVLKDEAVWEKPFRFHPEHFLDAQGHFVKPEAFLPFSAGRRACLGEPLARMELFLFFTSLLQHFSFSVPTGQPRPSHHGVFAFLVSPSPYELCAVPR
Chain of CYP2E1 (P05181 whole entry): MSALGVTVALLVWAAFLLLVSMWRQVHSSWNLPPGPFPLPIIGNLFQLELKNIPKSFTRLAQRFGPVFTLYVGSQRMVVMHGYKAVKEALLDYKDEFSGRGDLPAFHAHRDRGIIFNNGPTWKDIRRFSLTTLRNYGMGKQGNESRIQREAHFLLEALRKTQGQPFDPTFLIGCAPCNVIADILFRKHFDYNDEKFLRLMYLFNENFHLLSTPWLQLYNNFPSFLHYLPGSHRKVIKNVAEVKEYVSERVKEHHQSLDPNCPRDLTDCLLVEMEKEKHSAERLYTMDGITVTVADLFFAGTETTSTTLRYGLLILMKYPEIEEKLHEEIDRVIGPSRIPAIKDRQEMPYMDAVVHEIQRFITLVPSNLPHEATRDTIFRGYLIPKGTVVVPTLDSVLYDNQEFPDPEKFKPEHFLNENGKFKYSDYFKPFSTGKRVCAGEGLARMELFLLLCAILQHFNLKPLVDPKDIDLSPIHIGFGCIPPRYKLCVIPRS

CC(C)(C)C#C/C=C/CNCc1cccc2ccccc12.Cl [desmethyl-terbinafine, N-desmethyl-terbinafine hydrochloride]
desmethyl hydroxyterbinafine formation (kinetic constants) (CYP1A2): undetected | desmethyl-terbinafine dihydrodiol formation (kinetic constants) (CYP1A2): undetected | desmethyl hydroxyterbinafine formation (kinetic constants) (CYP2D6 [1]): undetected | Vmax, 1-naphthyl-methylamine formation (CYP2C9; CYP2C9, Step 2.2a, substrate desmethyl-terbinafine): 330 ± 41 pmol/min/nmol protein | 6,6-dimethyl-2-hepten-4-yn-1-amine formation (steady-state kinetic constants) (CYP2C9; [5]): undetected | Vmax, 1-naphthaldehyde formation (CYP2C9; [5]): 69 ± 4.4 pmol/min/nmol protein | desmethyl hydroxyterbinafine formation (kinetic constants) (CYP2C9; CYP2C9, substrate desmethyl-terbinafine): undetected | Vmax, desmethyl-terbinafine dihydrodiol formation (CYP2C9; CYP2C9, substrate desmethyl-terbinafine, normalized MS peak area, scaled x10^6): 2.0 ± 0.07 μV*sec/min/nmol | fold higher efficiency of dihydrodiol formation by CYP2C9 vs CYP2B6 (CYP2C9; substrate desmethylterbinafine): 50 fold | Vmax, 1-naphthyl-methylamine formation (CYP2C8; Step 2.2a, substrate desmethyl-terbinafine): 85 ± 6.5 pmol/min/nmol protein | 6,6-dimethyl-2-hepten-4-yn-1-amine formation (steady-state kinetic constants) (CYP2C8; [6]): undetected | Vmax, 1-naphthaldehyde formation (CYP2C8; [6]): 300 ± 28 pmol/min/nmol protein | desmethyl-terbinafine dihydrodiol formation (kinetic constants) (CYP2C8; substrate desmethyl-terbinafine): undetected | Vmax, desmethyl hydroxyterbinafine formation (CYP2C8; [7]): 0.61 ± 0.04 μV*sec/min/nmol | 6,6-dimethyl-2-hepten-4-yn-1-amine formation (steady-state kinetic constants) (CYP2B6; [6]): undetected | Vmax, desmethyl hydroxyterbinafine formation (CYP2B6; substrate desmethyl-terbinafine, no saturation): linear | Vmax, desmethyl-terbinafine dihydrodiol formation (CYP2B6; [7]): 0.59 ± 0.13 μV*sec/min/nmol

CN(C/C=C/C#CC(C)(C)C)Cc1cccc2ccccc12 [terbinafine]
Hill slope (n), hydroxyterbinafine formation (CYP2C19): 1.40 ± 0.11 | Hill slope (n), terbinafine dihydrodiol formation (CYP2C19): 0.58 ± 0.08 | metabolite formation / role in terbinafine metabolism (CYP2A6): not able to generate metabolites; also recorded: no role | hydroxyterbinafine formation (kinetic constants) (CYP2C9; CYP2C9, substrate terbinafine): undetected | hydroxyterbinafine formation (kinetic constants) (CYP2C8; substrate terbinafine): undetected | terbinafine dihydrodiol formation (kinetic constants) (CYP2C8; substrate terbinafine): undetected | risk of idiosyncratic liver toxicity, one in N patients [2]: 45,000–54,000 | combined contribution of CYP2C9 and 3A4 to every metabolic step (CYP2C9 and 3A4): over 60% | Hill slope (n), hydroxyterbinafine formation (CYP3A4): 1.30 ± 0.16 | Hill slope (n), terbinafine dihydrodiol formation (CYP3A4): 2.0 ± 0.32 | reported plasma terbinafine and metabolite levels [3]: ≤ 3 µM | TBF-A formation (steady-state kinetic constants) (CYP2D6 [4]): undetected | role in terbinafine metabolism (CYP2E1): no role | TBF-A formation (steady-state kinetic constants) (CYP2B6; Pathway 1 Step 1, substrate terbinafine): undetected | Km at 30 min (CYP2B6; human, recombinant CYP2B6 Supersomes, pH 7.4, Km or S50, hydroxyterbinafine formation, substrate terbinafine): 300 ± 100 µM
